Tests used:
[1] = system: BAX shift towards the chondriosome; assay: Co-localization between Bax protein and chondriosome, Bax-YFP in MCF-7 cells; type: cell-based; conditions: for Doses (concentration at which the compound drove the BAX to shift towards the chondriosome): Bax-YFP/Mito Tracker Red; for Time (time period after which BAX shifted towards the chondriosome): at the concentration given
Procedure, shortened: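 MCF-7 cells transfected with Bax-YFP plasmid; 24 h later treated with 10 μM compound for 6 h, then stained 10 min with 50 nM MitoTracker Red CMXRos. Dual-channel laser confocal imaging; Bax mitochondrial localization read as green/red overlap (orange).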

[2] = biological target: T1, interaction between Bcl-2 and Bax (Homo sapiens, UniProt P10415); assay: Intracellular FRET, Bcl-2-CFP/Bax-YFP in Hela cells; type: cell-based; conditions: for Time (time period after which the interaction between Bcl-2 and Bax was interfered): at the concentration given
T1 construct: expressed in transfected cells; host or cells: Hela cells
T1 sequence (P10415 whole entry): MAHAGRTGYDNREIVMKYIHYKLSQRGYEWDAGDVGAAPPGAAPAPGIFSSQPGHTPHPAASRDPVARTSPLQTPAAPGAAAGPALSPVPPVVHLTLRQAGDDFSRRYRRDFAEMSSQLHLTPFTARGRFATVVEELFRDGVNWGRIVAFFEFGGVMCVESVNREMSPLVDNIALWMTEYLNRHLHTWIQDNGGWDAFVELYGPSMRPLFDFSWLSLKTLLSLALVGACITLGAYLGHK
Procedure, shortened: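 Hela cells transfected with Bcl-2-CFP and/or Bax-YFP plasmids, then treated with compound in DMSO at 2, 5, 10 and 15 μM for 24 h, or at 40 μM for 3, 6 and 24 h. FRET taken as the 527/475 nm emission ratio at 433 nm excitation, with singly transfected controls set to 1.0. Viability checked by MTT.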

Mcl-1 = assay: Western blotting, semiquantitative analysis of Mcl-1 protein bands; type: cell-based; conditions: control = 1, tumor cells
Method: (§1) The interest protein was detected by the corresponding antibody. The expression of the interest protein in the cells was detected by horseradish peroxidase-labeled secondary antibodies in combination with ECL coloration method. […] The concentration of the protein bands in the Western images were carried out semiquantitative analysis and normalization treatment with KODAK Gel Logic 1500 imaging system software.

MCF-7 cells = assay: Cytotoxicity by MTT, cells without plasmid transfection; type: cell-based; conditions: Homo sapiens, MCF7; MCF-7, MTT, 48 hours; read-out: IC50 value in untransfected cells
Procedure, shortened: (§2)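 MCF-7 cells transfected with 3 μg BAX/BAK interfering plasmid by calcium phosphate, knockdown checked by Western; untransfected cells run in parallel. Cells treated with a compound concentration gradient for 48 hours; viability by MTT, IC50 derived.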

GST-Bcl-2 protein = GST-Bcl-2 protein (Homo sapiens, UniProt P10415); assay: Fluorescence polarization assay, competition with FAM-Bid peptide for Bcl-2; conditions: GST-Bcl-2 40 nM, FAM-Bid 5 nM, 4 hours of incubation, read-out: Bcl-2 binding constants
Chain of GST-Bcl-2 protein (P10415 whole entry): as above
Method: (§3) A Bid BH3 peptide (amino acids: 79-99: […]) having 21 amino acids was synthesized and marked with 6-carboxyfluorescein N-succinimidyl ester (FAM) as fluorescent tag (FAM-Bid) at the N-terminal. The reaction system used in the competitive binding experiment was GST-Bcl-2 protein (40 nM) or Mcl-1 protein, which was dissolved in the reaction buffer (100 mM K3PO4, pH 7.5; 100 μg/ml bovine γ albumin; 0.02% sodium azide) together with FAM-Bid polypeptide (5 nM). In a 96-well plate, 100 µL of the reaction system was added into each well. Then 1 μL different concentration of compound 13 mother solution to be detected dissolved in DMSO was added there into until the final concentration met the experimental design requirements. Meanwhile, two control groups were established, one with the reaction system only containing Bcl-2 or Mcl-1 and FAM-Bid (equivalent to 0% inhibition rate), the other with the reaction system only containing FAM-Bid peptide. After 4 hours of incubation, the 96-well plate was detected by enzyme-labelled meter. The fluorescent polarization value (mP) was tested at […]. Ki value was deduced according to calculation formula.
(§4) The BH3 analogous degrees of other 12 compounds were detected by using the experimental method as described above.

Bcl-2 = assay: Western blotting, semiquantitative analysis of Bcl-2 protein bands; type: cell-based; conditions: control = 1, tumor cells
Method: as §1

Mcl-1 protein = Mcl-1 protein (Homo sapiens, UniProt Q07820); assay: Fluorescence polarization assay, competition with FAM-Bid peptide for Mcl-1; conditions: FAM-Bid 5 nM, 4 hours of incubation, read-out: Mcl-1 binding constants
Chain of Mcl-1 protein (Q07820 whole entry, species assumed): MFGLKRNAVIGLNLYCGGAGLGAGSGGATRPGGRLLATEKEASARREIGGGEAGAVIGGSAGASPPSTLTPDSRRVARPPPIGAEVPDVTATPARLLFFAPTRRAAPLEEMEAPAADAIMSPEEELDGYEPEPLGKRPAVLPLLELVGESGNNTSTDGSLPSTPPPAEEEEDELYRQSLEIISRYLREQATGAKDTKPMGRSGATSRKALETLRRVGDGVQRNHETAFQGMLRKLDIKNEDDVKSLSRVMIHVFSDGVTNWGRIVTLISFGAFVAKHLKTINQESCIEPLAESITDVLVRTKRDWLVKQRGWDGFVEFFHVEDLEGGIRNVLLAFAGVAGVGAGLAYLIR
Method: as §3, §4

[3] = system: MCF-7 cells transfected with BAX/BAK interfering plasmid; assay: Cytotoxicity by MTT, cells transfected with BAX/BAK interfering plasmid; type: cell-based; conditions: Homo sapiens, MCF7; MCF-7 with BAX/BAK interfering plasmid, MTT, 48 hours
Procedure, shortened: as §2

Row | Structure (SMILES) | Doses (concentration at which the compound interfered with the interaction between Bcl-2 and Bax) [2] | Time (time period after which the interaction between Bcl-2 and Bax was interfered) [2] | Ki (GST-Bcl-2 protein) | Ki (Mcl-1 protein) | melting point | Doses (concentration at which the compound drove the BAX to shift towards the chondriosome) [1] | Time (time period after which BAX shifted towards the chondriosome) [1] | concentration of the protein bands (semiquantitative, normalized), Mcl-1 (Mcl-1; 2 h) | concentration of the protein bands (semiquantitative, normalized), Mcl-1 (Mcl-1; 6 h) | IC50 (MCF-7 cells) | concentration of the protein bands (semiquantitative, normalized), Bcl-2 (Bcl-2; 6 h) | concentration of the protein bands (semiquantitative, normalized), Bcl-2 (Bcl-2; 12 h) | concentration of the protein bands (semiquantitative, normalized), Bcl-2 (Bcl-2; 18 h) | concentration of the protein bands (semiquantitative, normalized), Bcl-2 (Bcl-2; 24 h) | IC50 [3]
1 | CCC(C)c1ccc(Oc2ccc3c4c(cccc24)C2=NC(=O)C(C#N)=C23)cc1 (stereo not shown) [Compound 13, 3-(4-sec-Butyl-phenoxy)-8-oxo-8H-acenaphtho[1,2-b]pyrrole-9-carbonitrile] | 0.5 µM | 4 h | 158 nM | 24 nM | 278 to 279 °C | 5.0 µM | 4 h | 0.79 | 0.29 | 7500 nM | 0.99 | 0.99 | 0.42 | 0.14 | > 50 µM
2 | CC(C)c1ccc(Oc2ccc3c4c(cccc24)C2=NC(=O)C(C#N)=C23)cc1 [Compound 17, 3-(4-Isopropyl-phenoxy)-8-oxo-8H-acenaphtho[1,2-b]pyrrole-9-carbonitrile] | 0.1 µM | 2 h | 20 nM | 85 nM | – | 1.0 µM | 1 h | 0.65 | 0.37 | 2000 nM | 0.99 | 0.99 | 0.58 | 0.11 | > 50 µM
3 | CC(C)Cc1ccc(Sc2ccc3c4c(cccc24)C2=NC(=O)C(C#N)=C23)cc1 [Compound 18, 3-(4-Isobutyl-phenylsulfanyl)-8-oxo-8H-acenaphtho[1,2-b]pyrrole-9-carbonitrile] | 0.5 µM | 4 h | 120 nM | 8 nM | – | 5.0 µM | 4 h | 0.66 | 0.39 | 6800 nM | 0.99 | 0.99 | 0.36 | 0.10 | > 50 µM

Second part, led by results:

Row | Doses (concentration at which the compound interfered with the interaction between Bcl-2 and Bax) [2] | Time (time period after which the interaction between Bcl-2 and Bax was interfered) [2] | Ki (GST-Bcl-2 protein) | Ki (Mcl-1 protein) | melting point | Structure (SMILES) | Doses (concentration at which the compound drove the BAX to shift towards the chondriosome) [1] | Time (time period after which BAX shifted towards the chondriosome) [1] | concentration of the protein bands (semiquantitative, normalized), Mcl-1 (Mcl-1; 2 h) | concentration of the protein bands (semiquantitative, normalized), Mcl-1 (Mcl-1; 6 h) | IC50 (MCF-7 cells) | concentration of the protein bands (semiquantitative, normalized), Bcl-2 (Bcl-2; 6 h) | concentration of the protein bands (semiquantitative, normalized), Bcl-2 (Bcl-2; 12 h) | concentration of the protein bands (semiquantitative, normalized), Bcl-2 (Bcl-2; 18 h) | concentration of the protein bands (semiquantitative, normalized), Bcl-2 (Bcl-2; 24 h) | IC50 [3]
4 | 0.2 µM | 2 h | 23 nM | 57 nM | – | CC(C)c1ccc(Sc2ccc3c4c(cccc24)C2=NC(=O)C(C#N)=C23)cc1 [Compound 20, 3-(4-Isopropyl-phenylsulfanyl)-8-oxo-8H-acenaphtho[1,2-b]pyrrole-9-carbonitrile] | 5.0 µM | 3 h | 0.60 | 0.29 | 2100 nM | 0.99 | 0.99 | 0.50 | 0.23 | > 50 µM
5 | 0.2 µM | 2 h | 12 nM | 65 nM | – | CCC(C)c1ccc(Sc2ccc3c4c(cccc24)C2=NC(=O)C(C#N)=C23)cc1 (stereo not shown) [Compound 21, 3-(4-sec-Butyl-phenylsulfanyl)-8-oxo-8H-acenaphtho[1,2-b]pyrrole-9-carbonitrile] | 2.0 µM | 2 h | 0.59 | 0.28 | 1500 nM | 0.99 | 0.99 | 0.49 | 0.18 | > 50 µM
6 | 0.5 µM | 2 h | 9 nM | 85 nM | – | CC(C)c1ccc(Sc2ccc3cccc4c3c2C2=NC(=O)C(C#N)=C24)cc1 [Compound 22, 6-(4-Isopropyl-phenylsulfanyl)-8-oxo-8H-acenaphtho[1,2-b]pyrrole-9-carbonitrile] | 5.0 µM | 3 h | 0.68 | 0.49 | 1200 nM | 0.99 | 0.99 | 0.60 | 0.37 | > 50 µM

— patent US8614333B2, “Acenaphtho heterocyclic compound and application thereof” (Dalian University of Technology, priority 2010, dated 2013)
